Reference: publication PMC11079868, “Synthesis of Novel Hydrazide–Hydrazone Compounds and In Vitro and In Silico Investigation of Their Biological Activities against AChE, BChE, and hCA I and II” (ACS Omega, 2024)
Read-outs that look alike come from different tables or passages of the source.

How the values were obtained:
Format in all cases: biochemical
hCA II = target: T1, hCA II (Homo sapiens, UniProt P00918); test: hCA II activity assay (Verpoorte esterase method); conditions: mean from at least three determinations
T1 construct: from tissue; host or cells: fresh human erythrocytes
Excerpt: (§1) In this study, hCA I and II were obtained from fresh human erythrocytes using affinity chromatography as previously described in the literature.[36],[37] AChE from Electrophorus electricus (electric eel) (C3389: Sigma-Aldrich), BChE from equine serum (C4290: Sigma-Aldrich), and the other chemicals (4-nitrophenyl acetate (N8130: Sigma-Aldrich), 5,5′-dithiobis(2-nitrobenzoic acid) (D218200: Sigma-Aldrich), acetylthiocholine iodide (A5771: Sigma-Aldrich), butyrylthiocholine iodide (B3253: Sigma-Aldrich)) were purchased from local representatives of well-known commercial companies. On the other hand, the absorbance rates of each compound were determined by a microplate spectrophotometer (Multiskan Go, Thermo Scientific).
(§2) In this study, we conducted hCA I and II activity assays using the Verpoorte method, as outlined in previous literature.[38] The inhibitory activities of all of the newly synthesized compounds were thoroughly tested. The inhibitory activity of each molecule was examined in triplicate at each concentration. Different concentrations were employed for all inhibitors tested in this study, respectively. The baseline activity in the control cuvette, without any inhibitory agent, was established as 100%. AZA was used as a positive control compound.

BChE = target: T2, BChE (Equus caballus, UniProt P81908); test: BChE activity assay (Ellman method)
T2 construct: BChE from equine serum (C4290: Sigma-Aldrich); purchased Sigma-Aldrich C4290; host or cells: equine serum
T2 sequence (P81908 whole entry): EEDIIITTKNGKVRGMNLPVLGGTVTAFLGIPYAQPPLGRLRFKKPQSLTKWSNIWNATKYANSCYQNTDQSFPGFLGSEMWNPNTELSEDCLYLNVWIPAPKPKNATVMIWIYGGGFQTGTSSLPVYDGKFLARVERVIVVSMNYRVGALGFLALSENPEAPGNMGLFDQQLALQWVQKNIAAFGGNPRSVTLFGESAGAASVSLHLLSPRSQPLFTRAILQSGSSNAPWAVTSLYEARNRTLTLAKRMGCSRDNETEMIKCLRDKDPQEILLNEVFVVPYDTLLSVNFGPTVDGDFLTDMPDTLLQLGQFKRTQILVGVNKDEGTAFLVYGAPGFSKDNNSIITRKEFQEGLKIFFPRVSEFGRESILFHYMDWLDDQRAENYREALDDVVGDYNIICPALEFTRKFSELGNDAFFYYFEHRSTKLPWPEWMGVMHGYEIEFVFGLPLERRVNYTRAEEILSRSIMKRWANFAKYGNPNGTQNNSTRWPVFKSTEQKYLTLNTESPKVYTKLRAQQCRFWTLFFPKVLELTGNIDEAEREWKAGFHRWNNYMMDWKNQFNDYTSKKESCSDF
Excerpt: as §1
(§3) The evaluation of the inhibitory characteristics of all synthesized compounds against AChE and BChE was conducted using the widely recognized Ellman method,[41] as described in pertinent literature sources.[2],[14],[18]

hCA I = target: T3, hCA I (Homo sapiens, UniProt P00915); test: biochemical; conditions: for IC50: mean from at least three determinations
T3 construct: from tissue; host or cells: fresh human erythrocytes
T3 sequence (P00915 whole entry): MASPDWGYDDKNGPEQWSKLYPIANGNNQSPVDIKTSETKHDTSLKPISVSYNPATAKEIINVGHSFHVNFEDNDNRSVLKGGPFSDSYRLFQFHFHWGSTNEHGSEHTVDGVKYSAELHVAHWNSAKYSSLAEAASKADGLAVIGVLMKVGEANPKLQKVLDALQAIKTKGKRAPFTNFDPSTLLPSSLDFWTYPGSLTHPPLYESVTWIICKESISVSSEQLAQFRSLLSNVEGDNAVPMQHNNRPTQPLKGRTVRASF
Excerpt: as §1
as §2, with “100%.” for “100%. AZA was used as a positive control compound.”

AChE = target: T4, AChE (Electrophorus electricus, UniProt O42275); test: AChE activity assay (Ellman method); conditions: for IC50: mean from at least three determinations
T4 construct: purchased Sigma-Aldrich C3389
T4 sequence (O42275 24-633): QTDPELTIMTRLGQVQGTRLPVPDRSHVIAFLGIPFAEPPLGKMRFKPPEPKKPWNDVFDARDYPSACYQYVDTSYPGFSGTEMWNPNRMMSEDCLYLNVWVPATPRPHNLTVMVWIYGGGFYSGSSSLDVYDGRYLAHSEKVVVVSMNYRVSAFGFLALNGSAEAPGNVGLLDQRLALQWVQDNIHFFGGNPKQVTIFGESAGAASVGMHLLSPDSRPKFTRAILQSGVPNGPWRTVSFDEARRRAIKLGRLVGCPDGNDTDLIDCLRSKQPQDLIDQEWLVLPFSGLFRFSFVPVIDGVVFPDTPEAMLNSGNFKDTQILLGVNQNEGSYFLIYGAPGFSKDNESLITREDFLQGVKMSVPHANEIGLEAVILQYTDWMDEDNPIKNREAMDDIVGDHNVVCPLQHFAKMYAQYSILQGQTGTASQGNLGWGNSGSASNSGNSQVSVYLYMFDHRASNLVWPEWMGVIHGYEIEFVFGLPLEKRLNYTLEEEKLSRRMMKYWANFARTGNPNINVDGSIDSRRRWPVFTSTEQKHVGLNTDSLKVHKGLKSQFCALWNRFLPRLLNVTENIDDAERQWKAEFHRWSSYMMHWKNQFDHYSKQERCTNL
Excerpt: as §1, §3

[1] = mean from at least three determinations, read-out: IC50 BChE
[2] = ratio of IC50 values vs neostigmine

**Q.** `CN(C)c1ccc(C(=O)Oc2ccc3ccccc3c2C=O)cc1` [compound 6, 1-Formylnaphthalen-2-yl 4-(Dimethylamino)benzoate] was tested. Which IC50 (hCA II) did it give?
**A.** The IC50 was 24.7 ± 0.43 nM.

**Q.** And the IC50 (BChE; [1])?
**A.** Its IC50 is 25.2 ± 0.42 nM.

**Q.** What about the IC50 (hCA I) of the same compound?
**A.** Its IC50 is 45.1 ± 0.82 nM.

**Q.** And the IC50 (AChE)?
**A.** Its IC50 is 28.2 ± 0.52 nM.

**Q.** Which IC50 (hCA II) does the source give for `COc1ccc(C=O)cc1OC(=O)c1ccc(N(C)C)cc1` [compound 4, 5-Formyl-2-methoxyphenyl 4-(Dimethylamino)benzoate] here?
**A.** Its IC50 is 15.4 ± 0.32 nM.

**Q.** And the IC50 (BChE; [1])?
**A.** Its IC50 is 53.1 ± 0.91 nM.

**Q.** What about the IC50 (hCA I) of the same compound?
**A.** Its IC50 is 38.1 ± 0.65 nM.

**Q.** And the IC50 (AChE)?
**A.** The IC50 was 60.2 ± 1.02 nM.

**Q.** With `CN(C)c1ccc(C(=O)Oc2ccc3ccccc3c2C=NNC(=O)c2cccnc2)cc1` [compound 12, 1-((2-Nicotinoylhydrazono)methyl)naphthalen-2-yl 4-(Dimethylamino)benzoate] as the compound, how does the IC50 (hCA II) read?
**A.** Its IC50 is 23.5 ± 0.41 nM.

**Q.** And the IC50 (BChE; [1])?
**A.** Its IC50 is 18.4 ± 0.36 nM.

**Q.** What about the “inhibition of BChE relative to neostigmine” value (BChE; [2]) of the same compound?
**A.** Its value is “approximately 5 fold”.

**Q.** What about the “inhibition of BChE relative to neostigmine” value (BChE; ratio vs neostigmine, Conclusions text) of the same compound?
**A.** The value was “approximately 4 times”.

**Q.** And the IC50 (hCA I)?
**A.** The IC50 was 42.7 ± 0.81 nM.

**Q.** What about the IC50 (AChE) of the same compound?
**A.** The IC50 was 21.4 ± 0.38 nM.

**Q.** What about the “inhibition of AChE relative to neostigmine” value (AChE; [2]) of the same compound?
**A.** Its value is “more than 6 fold”.

**Q.** And the “inhibition of AChE relative to rivastigmine” value (AChE; ratio of IC50 values vs rivastigmine)?
**A.** The value was “approximately 3 fold”.

**Q.** For `CN(C)C(=O)Oc1cccc([N+](C)(C)C)c1` [neostigmine, reference compound], which IC50 (BChE) is on record?
**A.** The IC50 was 84 ± 1.07 nM.

**Q.** How did the IC50 (hCA II) turn out when `COc1cccc(C=NNC(=O)c2cccnc2)c1OC(=O)c1ccc(N(C)C)cc1` [compound 9, 2-Methoxy-6-((2-nicotinoylhydrazono)methyl)phenyl 4-(Dimethylamino)benzoate] was run?
**A.** The IC50 was 12.5 ± 0.21 nM.

**Q.** What about the IC50 (BChE; [1]) of the same compound?
**A.** The IC50 was 39.6 ± 0.71 nM.

**Q.** And the IC50 (hCA I)?
**A.** The IC50 was 35.7 ± 0.74 nM.

**Q.** What about the IC50 (AChE) of the same compound?
**A.** Its IC50 is 43.2 ± 0.81 nM.

**Q.** How did the IC50 (hCA II) turn out when `COc1cc(C=NNC(=O)c2cccnc2)ccc1OC(=O)c1ccc(N(C)C)cc1` [compound 11, 2-Methoxy-4-((2-nicotinoylhydrazono)methyl)phenyl 4-(Dimethylamino)benzoate] was run?
**A.** The IC50 was 11.6 ± 0.22 nM.

**Q.** And the IC50 (BChE; [1])?
**A.** Its IC50 is 28.6 ± 0.5 nM.

**Q.** And the IC50 (hCA I)?
**A.** The IC50 was 32.2 ± 0.72 nM.

**Q.** And the IC50 (AChE)?
**A.** Its IC50 is 28.6 ± 0.52 nM.

**Q.** Which results are given for `CN(C)c1ccc(C(=O)Oc2ccc(C=NNC(=O)c3cccnc3)cc2)cc1` [compound 8, 4-((2-Nicotinoylhydrazono)methyl)phenyl 4-(Dimethylamino)benzoate]?
**A.** IC50 (hCA II): 7.12 ± 0.12 nM; IC50 (BChE; [1]): 43.4 ± 0.83 nM; IC50 (hCA I): 21.4 ± 0.39 nM; inhibition of hCA I relative to AZA (hCA I; ratio of IC50 values vs AZA): 13 fold; IC50 (AChE): 46.3 ± 0.75 nM

**Q.** For `CN(C)c1ccc(C(=O)Oc2ccc(C=O)cc2)cc1` [compound 2, 4-Formylphenyl 4-(Dimethylamino)benzoate], which IC50 (hCA II) is on record?
**A.** The IC50 was 12.2 ± 0.21 nM.

**Q.** And the IC50 (BChE; [1])?
**A.** Its IC50 is 41.5 ± 0.68 nM.

**Q.** What about the IC50 (hCA I) of the same compound?
**A.** Its IC50 is 25.6 ± 0.47 nM.

**Q.** What about the IC50 (AChE) of the same compound?
**A.** The IC50 was 48.5 ± 0.81 nM.

**Q.** For `CN(C)c1ccc(C(=O)Oc2ccccc2C=NNC(=O)c2cccnc2)cc1` [compound 7, 2-((2-Nicotinoylhydrazono)methyl)phenyl 4-(Dimethylamino)benzoate], which IC50 (hCA II) is on record?
**A.** The IC50 was 8.03 ± 0.14 nM.

**Q.** And the IC50 (BChE; [1])?
**A.** The IC50 was 45.3 ± 0.82 nM.

**Q.** And the IC50 (hCA I)?
**A.** Its IC50 is 29.1 ± 0.53 nM.

**Q.** And the IC50 (AChE)?
**A.** Its IC50 is 48.6 ± 0.79 nM.

**Q.** Which IC50 (hCA II) does the source give for `CN(C)c1ccc(C(=O)Oc2ccccc2C=O)cc1` [compound 1, 2-Formylphenyl 4-(Dimethylamino)benzoate] here?
**A.** Its IC50 is 13.7 ± 0.27 nM.

**Q.** What about the IC50 (BChE; [1]) of the same compound?
**A.** The IC50 was 43.5 ± 0.75 nM.

**Q.** What about the IC50 (hCA I) of the same compound?
**A.** The IC50 was 27.5 ± 0.51 nM.

**Q.** What about the IC50 (AChE) of the same compound?
**A.** The IC50 was 51.1 ± 0.88 nM.

**Q.** How did the IC50 (hCA II) turn out when `COc1cc(C=O)ccc1OC(=O)c1ccc(N(C)C)cc1` [compound 5, 4-Formyl-2-methoxyphenyl 4-(Dimethylamino)benzoate] was run?
**A.** Its IC50 is 20.4 ± 0.35 nM.

**Q.** And the IC50 (BChE; [1])?
**A.** The IC50 was 54.7 ± 0.91 nM.

**Q.** What about the IC50 (hCA I) of the same compound?
**A.** The IC50 was 39.1 ± 0.71 nM.

**Q.** And the IC50 (AChE)?
**A.** Its IC50 is 61.4 ± 1.12 nM.

**Q.** Which results are given for `COc1ccc(C=NNC(=O)c2cccnc2)cc1OC(=O)c1ccc(N(C)C)cc1` [compound 10, 2-Methoxy-5-((2-nicotinoylhydrazono)methyl)phenyl 4-(Dimethylamino)benzoate]?
**A.** IC50 (hCA II): 11.8 ± 0.22 nM; IC50 (BChE; [1]): 29.7 ± 0.54 nM; IC50 (hCA I): 32.5 ± 0.73 nM; IC50 (AChE): 29.6 ± 0.53 nM

**Q.** With `COc1cccc(C=O)c1OC(=O)c1ccc(N(C)C)cc1` [compound 3, 2-Formyl-6-methoxyphenyl 4-(Dimethylamino)benzoate] as the compound, how does the IC50 (hCA II) read?
**A.** Its IC50 is 16.1 ± 0.33 nM.

**Q.** What about the IC50 (BChE; [1]) of the same compound?
**A.** The IC50 was 51.3 ± 0.89 nM.

**Q.** And the IC50 (hCA I)?
**A.** The IC50 was 39.6 ± 0.72 nM.

**Q.** What about the IC50 (AChE) of the same compound?
**A.** The IC50 was 59.5 ± 0.96 nM.
